# Key:
# A549 human lung cancer = test: s.c. A549 tumor, i.v. treatment, tumor volume (FIG. 8); format: in vivo, mice; settings: i.v., independent of the dose schedule; BrC16HT 12.5-25 mg/kg, Taxol® 25 mg/kg
# Text: Mice were sacrificed when the average tumor volume of the group reached 1500 mm^3.
# A549 human NSCLC = test: i.p. A549 tumor, i.p. treatment, survival; settings: i.p. on days 1, 3, 5, 7 & 9
# Procedure: Note that long-term survivors (mice that survived through day 300 after cell inoculation) were not included in mean, median, or % ILS calculations.
# SCID mice (6/group) were injected with 5×10^6 A549 human NSCLC cells i.p. (day 0).
# OVCAR-3 cancer cells = test: cells; settings: Homo sapiens, OVCAR-3, 72 h, read-out: GI50 ± S.D. OVCAR-3
# Procedure: Briefly, 96-well microtiter plates were inoculated (100 μL/well) with 5×10^3 (A549) or 7.5×10^3 (OVCAR-3) cells/well, in RPMI-1640 supplemented with 10% FBS (growth media). The plates were incubated for 24 hr at 37° C., 100% humidity and 5% CO2. At 24 hours, growth media (100 μL) was added to designated “time zero” plates. Similarly, serial dilutions of drug or vehicle (in media) were added (100 μL aliquots) to the test and vehicle control wells at twice the predetermined highest concentration. There were triplicate wells on each plate and duplicate plates (total 6 wells) for each drug concentration. The test plates were incubated as above for 72 hr. Cells (including time zero plates) were then fixed with 50 μL of 50% trichloroacetic acid (TCA) (w:v) for adherent cells or 80% TCA for suspended cells, and plates refrigerated at 4° C. for 1 hr. […] The bound stain was solubilized with 100 μL of 10 mM Tris buffer and the optical density was read spectrophotometrically at 490 nm (Microplate Reader Model 3550-UV, Bio-Rad, Hercules, Calif.). Percent growth was calculated as follows: (T-T0) / (C-T0)×100; where (T)=mean optical density of treated wells at a given drug concentration, (T0)=mean optical density of time zero wells, and (C)=mean optical density of control wells.
# A549 cancer cells = test: cells; settings: Homo sapiens, A549, 72 h, read-out: GI50 ± S.D. A549
# Procedure: Briefly, 96-well microtiter plates were inoculated (100 μL/well) with 5×10^3 (A549) or 7.5×10^3 (OVCAR-3) cells/well, in RPMI-1640 supplemented with 10% FBS (growth media). The plates were incubated for 24 hr at 37° C., 100% humidity and 5% CO2. At 24 hours, growth media (100 μL) was added to designated “time zero” plates. Similarly, serial dilutions of drug or vehicle (in media) were added (100 μL aliquots) to the test and vehicle control wells at twice the predetermined highest concentration. There were triplicate wells on each plate and duplicate plates (total 6 wells) for each drug concentration. The test plates were incubated as above for 72 hr. Cells (including time zero plates) were then fixed with 50 μL of 50% trichloroacetic acid (TCA) (w:v) for adherent cells or 80% TCA for suspended cells, and plates refrigerated at 4° C. for 1 hr. The supernatant was discarded (suspended cell plates were first centrifuged) and the wells rinsed six times with tap water and air-dried. One hundred microliters of 0.4% SRB in 1% acetic acid were added to each well and the plates were incubated under ambient (RT) conditions for 10 min. Unbound stain was removed by rinsing the wells three times with 1% acetic acid. The plates were then air-dried for 24 hr. The bound stain was solubilized with 100 μL of 10 mM Tris buffer and the optical density was read spectrophotometrically at 490 nm (Microplate Reader Model 3550-UV, Bio-Rad, Hercules, Calif.). Percent growth was calculated as follows: (T-T0) / (C-T0)×100; where (T)=mean optical density of treated wells at a given drug concentration, (T0)=mean optical density of time zero wells, and (C)=mean optical density of control wells.
# [1] = tested on: OVCAR-3 human ovarian cancer; test: i.p. OVCAR-3 tumor, i.v. treatment, survival (FIG. 6); format: in vivo, mice
# Procedure: Mice were observed daily for mortality and % ILS was calculated as described above.
# in vivo = settings: female, CDF1, mouse, plasma, intravenous, 25 mg/kg
# Procedure: (§2) Control mice received an equivalent concentration of Cremophor® EL and ethanol (in PBS) only. At 1, 4, 8, 24 or 48 hr after injection mice were sacrificed and blood was collected via heart puncture into 1 cc syringes containing 0.05 mL of a 0.129M Sodium citrate solution (Baxter, N.J.). Samples were centrifuged at 10,000 ×g for 3 min and plasma removed. Extraction of test materials from plasma was done by adding an equal volume of acetonitrile containing 2C12-HT, 50 μg/ml, as an internal standard, and vortexing vigorously for 30 sec. Samples were then centrifuged for 3 min at 10,000 ×g and supernatant and drug levels determined via HPLC as described previously.
# CDF1 female mice = test: Acute toxicity of liposomal paclitaxel or paclitaxel derivative given intraperitoneally; settings: liposomes, i.p.
# Procedure: Moreover, liposomes containing either paclitaxel or a 2′-(2-bromo) hydrophobic paclitaxel derivative (containing either a six-carbon (C-6), C-8, C-12, C-14 or C-16 acyl chain at the 2′ position) were administered, intraperitoneally in 5 doses, to SCID (severe combined inimunodeficiency) mice bearing a human ovarian cancer (OvCar 3), at a dose of 12.5 mg paclitaxel per kg or a dose of 50 mg paclitaxel derivative per kg.
# CDF1 female mice, 5 or 10 mice per group, were intraperitoneally administered either paclitaxel-, 2′-C6-paclitaxel derivative-, or 2′-C16-paclitaxel derivative-containing liposomes, in a single dose, or 5 doses, of either 12.5, 25, 50, 100, 200, 300. 400 or 500 mg of paclitaxel or paclitaxel derivative per kg of mouse body weight.
# [2] = In vivo toxicity, i.p. x 5, non-tumor bearing mice; settings: CDF1, mouse, in vivo, ip; i.p. once daily for five consecutive days; read-out: maximum tolerated i.p. dose (MTD, highest dose with no deaths)
# Procedure: (§1) A separate group (n=5) was injected with concentrations of Cremophor® EL and ethanol (in PBS) equivalent to the highest concentration of the test treatment. Mortality was recorded daily and body weights taken at least twice weekly for an observation period of 30 days.
# CDF1 mice [3] = test: In vivo toxicity, i.p. x 5, non-tumor bearing mice; settings: 30 days observation
# Procedure: as §1
# [4] = tested on: OVCAR-3 human ovarian cancer; test: i.p. OVCAR-3 tumor, i.p. treatment, survival
# Procedure: C.B-17 SCID female mice were injected i.p. with 5×10^6 OVCAR-3 human ovarian cancer cells (day 0). […] Note that long-term survivors (mice that survived through day 300 after cell inoculation) were not included in mean, median, or % ILS calculations.
# [5] = tested on: A-549 human lung carcinoma; test: In vitro sensitivity, sulforhodamine B cytotoxicity assay, A-549 (Table 2); format: cell-based; settings: Homo sapiens, A549; 72-hour incubation; averaged from two separate experiments
# Procedure: Briefly, 96-well microtiter plates were inoculated (100 μL/well) with 5×10^3 (A549) or 7.5×10^3 (OVCAR-3) cells/well, in RPMI-1640 supplemented with 10% FBS (growth media). The plates were incubated for 24 hr at 37° C., 100% humidity and 5% CO2. At 24 hours, growth media (100 μL) was added to designated “time zero” plates. Similarly, serial dilutions of drug or vehicle (in media) were added (100 μL aliquots) to the test and vehicle control wells at twice the predetermined highest concentration. […] Cells (including time zero plates) were then fixed with 50 μL of 50% trichloroacetic acid (TCA) (w:v) for adherent cells or 80% TCA for suspended cells, and plates refrigerated at 4° C. for 1 hr. […] The plates were then air-dried for 24 hr.
# [6] = tested on: OVCAR-3 human ovarian cancer; test: s.c. OVCAR-3 tumor, i.v. treatment, tumor volume (FIG. 7); format: in vivo, mice
# Procedure: OVCAR-3 human ovarian cancer.
# The tumor volume (mm^3) from tumor measurement was calculated: (Length * (Width/2)^2 * π). Mice were sacrificed when the average tumor volume of the group reached 1500 mm^3.
# [7] = High sensitivity differential scanning calorimetry on phosphocholine bilayers; format: physicochemical; settings: DMPC, DPPC and DSPC bilayers, as high as 9.1 mol % (Lipid/Drug, 10:1)
# Text: High sensitivity differential scanning calorimetry (DSC) was used to examine the effect of addition of taxol and its acylated derivatives on the thermotropic phase properties of phosphocholine bilayers of saturated 1, 2-dimyristoyl-sn-glycero-3-phosphocholines (DMPC), 1,2-dipalmitoyl-sn-glycero-3-phosphocholines (DPPC), and 1,2-distearoyl-sn-glycero-3-phosphocholines (DSPC). Likewise, three acylated taxol prodrugs were varied in chain lengths from six, twelve, to sixteen carbons.
# [8] = Pharmacokinetic, plasma levels after i.v. administration; settings: 25 mg/kg i.v., CDF1 female mice, 8 hours
# Procedure: as §2
# CDF1 mice [9] = test: In vivo toxicity, i.v. x 5, non-tumor bearing mice; settings: 30 days observation
# Procedure: as §1
# [10] = tested on: MCF-7/ADR (adriamycin-resistant); test: In vitro sensitivity, sulforhodamine B cytotoxicity assay, MCF-7/ADR (Table 2); format: cell-based, human; settings: Homo sapiens, NCI/ADR-RES; 72-hour incubation; averaged from two separate experiments
# [11] = tested on: HT-29 human colon carcinoma cells; test: In vitro sensitivity, sulforhodamine B cytotoxicity assay, HT-29 (Table 2); format: cell-based; settings: Homo sapiens, HT-29; 72-hour incubation; averaged from two separate experiments
# [12] = tested on: MCF-7 human breast carcinoma; test: In vitro sensitivity, sulforhodamine B cytotoxicity assay, MCF-7 (Table 2); format: cell-based; settings: Homo sapiens, MCF7; 72-hour incubation; averaged from two separate experiments
# [13] = treated days 20, 22, 24, 26 and 28 i.p., 25 mg/kg
# [14] = treated days 20, 22, 24, 26 and 28 i.p., 25 mg/kg, long-term survivors not included
structure (smiles),measurement,setting,value
"CC(=O)O[C@H]1C(=O)[C@@]2(C)[C@H]([C@H](OC(=O)c3ccccc3)[C@]3(O)C[C@H](OC(=O)[C@H](O)[C@@H](NC(=O)c4ccccc4)c4ccccc4)C(C)=C1C3(C)C)[C@]1(OC(C)=O)CO[C@@H]1C[C@@H]2O [Paclitaxel, reference compound]",tumor growth vs. control,A549 human lung cancer,significantly (p <0.05 vs. control) inhibited the tumor growth
same,survival time of tumor-bearing mice vs. control,A549 human NSCLC,significantly (p<0.05 vs. control) increased the survival time
same,GI50,OVCAR-3 cancer cells,1.9 ± 0.03 nM
same,GI50,A549 cancer cells,3.3 ± 0.8 nM
same,medium survival times,"[1]; 12.5 mg/kg i.v. on days 20, 22, 24, 26 & 28",170 days
same,survival time vs. control,"[1]; 12.5 or 25 mg/kg i.v. on days 1, 3, 5, 7, 9, 42, 44, 46, 48 & 50 (FIG. 6a)",significantly (p<0.05 vs. control) increased the survival time
same,survival time vs. control,"[1]; i.v. on days 20, 22, 24, 26 & 28, BrC16HT 12.5 or 25 mg/kg, Taxol® 12.5 mg/kg (FIG. 6b)",significantly (p<0.05 vs. control) increased the survival time
same,concentration at 1 h,in vivo,14.4 ± 4.6 µg/mL
same,concentration at 4 h,in vivo,< 5 µg/mL
same,number of mice that died within the first 14 days post-injection/total,CDF1 female mice; five doses of 12.5 mg/kg,0/10
same,number of mice that died within the first 14 days post-injection/total,CDF1 female mice; five doses of 25 mg/kg,10/10
same,number of mice that died within the first 14 days post-injection/total,CDF1 female mice; five doses of 50 mg/kg,10/10
same,number of mice that died within the first 14 days post-injection/total,CDF1 female mice; single dose 12.5 mg/kg,0/10
same,number of mice that died within the first 14 days post-injection/total,CDF1 female mice; single dose 25 mg/kg,0/10
same,number of mice that died within the first 14 days post-injection/total,CDF1 female mice; single dose 50 mg/kg,0/10
same,number of mice that died within the first 14 days post-injection/total,"CDF1 female mice; single dose 100 mg/kg, 100 mg/kg",5/5
same,number of mice that died within the first 14 days post-injection/total,"CDF1 female mice; single dose 100 mg/kg, listed as paclitaxel, 100 mg/kg",all five of the mice
same,MTD at 5 days,[2],12.5 to 25 mg/kg
same,Number of Mice surviving/Total,"CDF1 mice [3]; i.p. days 1 through 5, 12.5 mg/kg",20/20
same,Number of Mice surviving/Total,"CDF1 mice [3]; i.p. days 1 through 5, 25 mg/kg",10/20
same,Number of Mice surviving/Total,"CDF1 mice [3]; i.p. days 1 through 5, 37.5 mg/kg",0/10
same,Number of Mice surviving/Total,"CDF1 mice [3]; i.p. days 1 through 5, 50 mg/kg",0/25
same,"long-term survivors (LTS), in words",[4]; delayed i.p. schedule (Table 9b),no long-term survivors were observed
same,survival of tumor-bearing mice vs. control,"[4]; early (days 1, 3, 5, 7 & 9) and delayed (days 20, 22, 24, 26 & 28) i.p. treatment schedules",significantly prolonged (p<0.05 vs. control) the survival
same,% ILS,[4]; [13],84%
same,LTS/n (mice that survived to 300 days),[4]; [13],0/10
same,MST Days ± SEM (n),[4]; [14],188 ± 15 (10) Days
same,Median survival time,[4]; [14],185 days
same,GI50,[5],2.3 nM
same,delaying tumor growth,"[6]; 25 mg/kg i.v. on days 1, 3, 5, 7 & 9",~59 days
same,tumor growth vs. control,"[6]; i.v. on days 1, 3, 5, 7 & 9, BrC16HT 12.5-25 mg/kg, Taxol® 25 mg/kg",significantly (p<0.05 vs. control) inhibited the tumor growth
same,perturbation of PC bilayers (DSC),[7],little or no effect on the perturbation of all three PC bilayers
same,Plasma level of paclitaxel ± SEM,[8],none detectable
same,Number of Mice surviving/Total,"CDF1 mice [9]; i.v. days 1 through 5, 12.5 mg/kg",10/10
same,Number of Mice surviving/Total,"CDF1 mice [9]; i.v. days 1 through 5, 25 mg/kg",8/10
same,Number of Mice surviving/Total,"CDF1 mice [9]; i.v. days 1 through 5, 37.5 mg/kg",0/7
same,Number of Mice surviving/Total,"CDF1 mice [9]; i.v. days 1 through 5, 50 mg/kg",0/8
same,GI50,[10],4170 nM
same,GI50,[11],< 1.4 nM
same,GI50,[12],< 1.5 nM

# Source: patent publication US6482850B2, “Hydrolysis-promoting hydrophobic taxane derivatives” (priority 1995, dated 2002)
